# Source: patent USRE48335E1, “Polymyxin derivatives as antimicrobial compounds” (priority 2014, dated 2020)
# Positions of bridges follow the written chain, without caps; N, C: chain ends. Non-standard residues stand in square brackets, D forms with d. Residues, ends and D or L forms follow the SMILES beside them. *: point of attachment. Tle = CC(C)(C)[C@H](N)C(=O)O; Decanoyl = CCCCCCCCCC(=O)*; Nonanoyl = CCCCCCCCC(=O)*; dNva = CCC[C@@H](N)C(=O)O; Heptanoyl = CCCCCCC(=O)*; Octanoyl = CCCCCCCC(=O)*; Dab = NCC[C@H](N)C(=O)O; Dap = NC[C@H](N)C(=O)O; Aib = CC(C)(N)C(=O)O
# How the values were obtained:
# [1] = tested on: Enterobacter cloacae
# Procedure: (§1) MICs of the lipopeptides (trifluoroacetic acid salt, TFA) were determined by broth microdilution in cation-adjusted Mueller-Hinton broth (CAMHB) (Oxoid Australia, Thebarton, SA, Australia) according to Clinical and Laboratory Standards Institute standards (Clinical and Laboratory Standards Institute. Performance standards for antimicrobial susceptibility testing; eighteenth informational supplement M100-S18. Wayne, Pa., 2008). Polymyxin B (sulphate) was employed as control. […]
# [2] = tested on: Acinetobacter baumannii
# Procedure: as §1
# [3] = tested on: Pseudomonas aeruginosa
# Procedure: as §1
Compound,"Minimum inhibitory concentration, Ec FADDI-EC001 [1] [µg/mL]","Minimum inhibitory concentration, Ec FADDI-EC003 [1] [µg/mL]","Minimum inhibitory concentration, Ec FADDI-EC006 [1] [µg/mL]","Minimum inhibitory concentration, Ab A ATCC 17978 [2] [µg/mL]","Minimum inhibitory concentration, Ab ATCC 19606 [2] [µg/mL]","Minimum inhibitory concentration, Ab FADDI-AB034 [2] [µg/mL]","Minimum inhibitory concentration, Pa ATCC 27853 [3] [µg/mL]","Minimum inhibitory concentration, Pa FADDI-PA022 [3] [µg/mL]","Minimum inhibitory concentration, Pa FADDI-PA025 [3] [µg/mL]"
CCCCCCCCCC(=O)N[C@@H](CCN)C(=O)N[C@H](C(=O)N[C@@H](CN)C(=O)N[C@H]1CCNC(=O)[C@H]([C@@H](C)O)NC(=O)[C@H](CCN)NC(=O)[C@H](CCN)NC(=O)[C@H](C(C)C)NC(=O)[C@@H](CC(C)C)NC(=O)[C@H](CCN)NC1=O)[C@@H](C)O [Compound 39] (Decanoyl-[Dab]T[Dap][Dab][Dab][dL]V[Dab][Dab]T; lactam 4-C),0.5,0.5,0.5,2,0.5,1,1,2,2
CCCCCCCCCC(=O)N[C@@H](CCN)C(=O)N[C@H](C(=O)N[C@@H](CCN)C(=O)N[C@H]1CCNC(=O)[C@H]([C@@H](C)O)NC(=O)[C@H](CCN)NC(=O)[C@H](CCN)NC(=O)[C@H](C)NC(=O)[C@@H](CC(C)C)NC(=O)[C@H](CCN)NC1=O)[C@@H](C)O [Compound 40] (Decanoyl-[Dab]T[Dab][Dab][Dab][dL]A[Dab][Dab]T; lactam 4-C),0.25,0.25,0.25,0.5,0.5,0.5,0.5,2,4
CCCCCCCCCC(=O)N[C@@H](CCN)C(=O)N[C@H](C(=O)N[C@@H](CCN)C(=O)N[C@H]1CCNC(=O)[C@H]([C@@H](C)O)NC(=O)[C@H](CCN)NC(=O)[C@H](CCN)NC(=O)[C@H](C(C)C)NC(=O)[C@@H](CC(C)C)NC(=O)[C@H](CCN)NC1=O)[C@@H](C)O [Compound 41] (Decanoyl-[Dab]T[Dab][Dab][Dab][dL]V[Dab][Dab]T; lactam 4-C),1,0.5,0.5,1,1,0.5,1,4,2
CCCCCCC(=O)N[C@@H](CCN)C(=O)N[C@H](C(=O)N[C@@H](CCN)C(=O)N[C@H]1CCNC(=O)[C@H]([C@@H](C)O)NC(=O)[C@H](CCN)NC(=O)[C@H](CCN)NC(=O)[C@H]([C@@H](C)O)NC(=O)[C@@H](CC(C)C)NC(=O)[C@H](CCN)NC1=O)[C@@H](C)O [Compound 42] (Heptanoyl-[Dab]T[Dab][Dab][Dab][dL]T[Dab][Dab]T; lactam 4-C),<0.125,<0.125,0.25,4,4,2,0.5,2,>32
CCCCCCCCC(=O)N[C@@H](CCN)C(=O)N[C@H](C(=O)N[C@@H](CCN)C(=O)N[C@H]1CCNC(=O)[C@H]([C@@H](C)O)NC(=O)[C@H](CCN)NC(=O)[C@H](CCN)NC(=O)[C@H]([C@@H](C)O)NC(=O)[C@@H](CC(C)C)NC(=O)[C@H](CCN)NC1=O)[C@@H](C)O [Compound 43] (Nonanoyl-[Dab]T[Dab][Dab][Dab][dL]T[Dab][Dab]T; lactam 4-C),0.25,<0.125,0.5,0.5,0.5,1,0.5,1,16
CCCCCCC(=O)N[C@@H](CCN)C(=O)N[C@H](C(=O)N[C@@H](CN)C(=O)N[C@H]1CCNC(=O)[C@H]([C@@H](C)O)NC(=O)[C@H](CCN)NC(=O)[C@H](CCN)NC(=O)[C@H]([C@@H](C)O)NC(=O)[C@@H](CC(C)C)NC(=O)[C@H](CCN)NC1=O)[C@@H](C)O [Compound 44] (Heptanoyl-[Dab]T[Dap][Dab][Dab][dL]T[Dab][Dab]T; lactam 4-C),0.25,<0.125,<0.125,1,1,1,0.5,1,16
CCCCCCCC(=O)N[C@@H](CCN)C(=O)N[C@H](C(=O)N[C@@H](CN)C(=O)N[C@H]1CCNC(=O)[C@H]([C@@H](C)O)NC(=O)[C@H](CCN)NC(=O)[C@H](CCN)NC(=O)C(C)(C)NC(=O)[C@@H](CC(C)C)NC(=O)[C@H](CCN)NC1=O)[C@@H](C)O [Compound 45] (Octanoyl-[Dab]T[Dap][Dab][Dab][dL][Aib][Dab][Dab]T; lactam 4-C),0.5,0.25,0.5,4,8,2,0.5,1,16
CCCCCCCC(=O)N[C@@H](CCN)C(=O)N[C@H](C(=O)N[C@@H](CN)C(=O)N[C@H]1CCNC(=O)[C@H]([C@@H](C)O)NC(=O)[C@H](CCN)NC(=O)[C@H](CCN)NC(=O)[C@H](C(C)(C)C)NC(=O)[C@@H](CC(C)C)NC(=O)[C@H](CCN)NC1=O)[C@@H](C)O [Compound 47] (Octanoyl-[Dab]T[Dap][Dab][Dab][dL][Tle][Dab][Dab]T; lactam 4-C),0.5,0.5,0.25,2,8,1,1,1,8
CCCCCCCC(=O)N[C@@H](CN)C(=O)N[C@H](C(=O)N[C@@H](CN)C(=O)N[C@H]1CCNC(=O)[C@H]([C@@H](C)O)NC(=O)[C@H](CCN)NC(=O)[C@H](CCN)NC(=O)[C@H]([C@@H](C)O)NC(=O)[C@@H](CC(C)C)NC(=O)[C@H](CCN)NC1=O)[C@@H](C)O [Compound 48] (Octanoyl-[Dap]T[Dap][Dab][Dab][dL]T[Dab][Dab]T; lactam 4-C),0.25,<0.125,<0.125,1,1,1,0.5,2,4
CCCCCCCC(=O)N[C@@H](CCN)C(=O)N[C@H](C(=O)N[C@@H](CN)C(=O)N[C@H]1CCNC(=O)[C@H]([C@@H](C)O)NC(=O)[C@H](CCN)NC(=O)[C@H](CCN)NC(=O)[C@H]([C@@H](C)O)NC(=O)[C@@H](CCC)NC(=O)[C@H](CCN)NC1=O)[C@@H](C)O [Compound 49] (Octanoyl-[Dab]T[Dap][Dab][Dab][dNva]T[Dab][Dab]T; lactam 4-C),0.5,0.5,0.25,0.5,1,0.5,0.5,0.25,16
